Measurements from patent US20240156778A1, “THIOPHENE DERIVATIVES FOR USE IN TREATING PORTAL INFLAMMATION AND FIBROSIS” (ENYO PHARMA, priority 2019, published 2024).

Experiments:
NASH mouse model [1] = assay: Periportal inflammation score in the AMLN-diet NASH mouse model (H&E inflammatory foci); type: in vivo, male C57BL/6JRj mice; details: 8 weeks oral dosing after high-fat (AMLN) diet; Compound #157 7 or 20 mg/kg twice daily; OCA 30 mg/kg once daily; FIG. 1
Method: (§1) Mice were fed with a high-fat diet for 30 weeks and then treated by oral administration, twice daily with either compound #157 or once daily with OCA for 8 weeks. Effects on portal/periportal inflammation and fibrosis and on lobular inflammation were determined before treatment and upon study completion.
(§2) Five week old, male C57BL/6JRj mice were fed either chow diet (Altromin 1324, Brogaarden, Denmark) or AMLN diet (40% total fat kcal of which 18.5% were trans-fat kcal, 20% fructose, 2% cholesterol; Research Diets #D09100301). This diet was maintained for 29 weeks prior to study initiation.
Three weeks prior to study initiation, liver biopsies were taken and animals with steatosis grade <2 and fibrosis stage <1 were deselected from the study. Prior to first administration of test article, stratified randomization of mice into treatment groups was performed according to collagen 1a1 (IHC) morphometry from the week -3 biopsies. […]
(§3) At termination, right medial and/or left lateral lobes of the liver (>50% of each lobe harvested) were excised and fixed in 10% neutral-buffered formalin (at least 7 days at room temperature). […] NAFLD and NASH were scored by use of criteria outlined by Kleiner et al. Hepatology 41, p. […]
Inflammation was evaluated by counting the number of hematoxylin and eosin (H&E) positive inflammatory foci per field using a 200× magnification (min. 5 fields per animal). […]

NASH mouse model [2] = assay: Periportal fibrosis (% fractional area, Picro Sirius Red) in the AMLN-diet NASH mouse model; type: in vivo, male C57BL/6JRj mice; details: 8 weeks oral dosing after high-fat (AMLN) diet; Compound #157 7 or 20 mg/kg twice daily; FIG. 2
Method: as §1, §2
Three weeks prior to study initiation, liver biopsies were taken and animals with steatosis grade <2 and fibrosis stage <1 were deselected from the study. […]
as §3
Portal fibrosis was quantified using Visiopharm Histopathology Image Analysis software (Visioparm, Hørsholm, Denmark). […] Periportal fibrosis was then detected in the periportal zone using the linear Bayesian method and reported as an area fraction.

SMILES	Effect on portal/periportal inflammation (NASH mouse model [1])	Effect on portal/periportal fibrosis (NASH mouse model [2])
O=C(Nc1scc(C2CCc3ccccc3C2)c1C(=O)O)c1ccccc1 (stereo not drawn) [Compound #157]	resolves	resolves
CC[C@H]1[C@@H](O)[C@@H]2[C@H](CC[C@]3(C)[C@@H]([C@H](C)CCC(=O)O)CC[C@@H]23)[C@@]2(C)CC[C@@H](O)C[C@@H]12 [OCA, Obeticholic acid, reference compound]	no effect	
